Test results reported in patent EP4722212A1, “NOVEL COMPOUND FOR INHIBITING PROTEIN KINASES AND PHARMACEUTICAL COMPOSITION COMPRISING SAME” (Magicbullettherapeutics Co., Ltd., priority 2023, dated 2024).
Like-named read-outs stand apart in the source and are kept apart here.

Experiments:
Test in all cases: Kinase panel
Type in all cases: biochemical
EPHB3 = EPHB3 (Homo sapiens, UniProt P54753); conditions: EPHB3, 1 µM; read-out: residual enzyme activity
In short: (§1)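 Residual enzyme activity is given for kinases screened biochemically with compound at a fixed 1 µM. Kinases showing ≤40% residual activity (≥60% inhibition) were identified as inhibited.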

RSK3 = RSK3 (Homo sapiens, UniProt Q15349); conditions: RSK3, 1 µM; read-out: residual enzyme activity
Chain of RSK3 (Q15349 whole entry, species assumed): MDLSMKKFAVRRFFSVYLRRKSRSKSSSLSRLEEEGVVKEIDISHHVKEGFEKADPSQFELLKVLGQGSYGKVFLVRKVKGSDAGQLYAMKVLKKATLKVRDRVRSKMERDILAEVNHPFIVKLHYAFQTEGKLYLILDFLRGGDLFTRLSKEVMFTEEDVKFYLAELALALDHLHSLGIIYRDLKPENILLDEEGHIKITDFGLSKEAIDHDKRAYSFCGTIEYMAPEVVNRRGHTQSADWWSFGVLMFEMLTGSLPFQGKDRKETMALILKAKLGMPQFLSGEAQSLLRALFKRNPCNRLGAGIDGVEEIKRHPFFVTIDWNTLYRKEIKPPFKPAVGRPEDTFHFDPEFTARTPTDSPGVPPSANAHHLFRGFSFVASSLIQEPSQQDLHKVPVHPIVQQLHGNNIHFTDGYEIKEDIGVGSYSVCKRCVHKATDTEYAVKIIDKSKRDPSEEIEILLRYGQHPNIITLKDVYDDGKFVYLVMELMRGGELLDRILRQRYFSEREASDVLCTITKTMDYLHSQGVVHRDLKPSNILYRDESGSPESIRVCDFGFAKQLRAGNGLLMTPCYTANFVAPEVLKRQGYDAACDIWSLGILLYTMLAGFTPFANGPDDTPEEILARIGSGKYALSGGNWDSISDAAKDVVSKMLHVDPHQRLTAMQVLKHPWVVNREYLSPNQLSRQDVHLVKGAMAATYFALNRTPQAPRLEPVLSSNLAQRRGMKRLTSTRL
In short: as §1

PBK/TOPK = PBK/TOPK (Homo sapiens, UniProt Q96KB5); conditions: read-out: residual enzyme activity
In short: as §1

MEKK6 = MEKK6 (Homo sapiens, UniProt O95382); conditions: MEKK6, 1 µM; read-out: residual enzyme activity
In short: as §1

ERK7/MAPK15 = ERK7/MAPK15 (Homo sapiens, UniProt Q8TD08); conditions: ERK7/MAPK15, 1 µM; read-out: residual enzyme activity
In short: as §1

WNK2 = WNK2 (Homo sapiens, UniProt Q9Y3S1); conditions: WNK2, 1 µM; read-out: residual enzyme activity
In short: as §1

C-MET = C-MET (Homo sapiens, UniProt P08581); conditions: read-out: residual enzyme activity
In short: as §1

CDK5/P35 = CDK5/P35 (Homo sapiens, UniProt Q00535); conditions: read-out: residual enzyme activity
In short: as §1

LYN = LYN (Homo sapiens, UniProt P07948); conditions: read-out: residual enzyme activity
In short: as §1

RIPK4 = RIPK4 (Homo sapiens, UniProt P57078); conditions: RIPK4, 1 µM; read-out: residual enzyme activity
In short: as §1

GRK3 = GRK3 (Homo sapiens, UniProt P35626); conditions: GRK3, 1 µM; read-out: residual enzyme activity
In short: as §1

PKG1A = PKG1A (Homo sapiens, UniProt Q13976); conditions: read-out: residual enzyme activity
In short: as §1

MNK1 = MNK1 (Homo sapiens, UniProt Q9BUB5); conditions: MNK1, 1 µM; read-out: residual enzyme activity
Chain of MNK1 (Q9BUB5 whole entry, species assumed): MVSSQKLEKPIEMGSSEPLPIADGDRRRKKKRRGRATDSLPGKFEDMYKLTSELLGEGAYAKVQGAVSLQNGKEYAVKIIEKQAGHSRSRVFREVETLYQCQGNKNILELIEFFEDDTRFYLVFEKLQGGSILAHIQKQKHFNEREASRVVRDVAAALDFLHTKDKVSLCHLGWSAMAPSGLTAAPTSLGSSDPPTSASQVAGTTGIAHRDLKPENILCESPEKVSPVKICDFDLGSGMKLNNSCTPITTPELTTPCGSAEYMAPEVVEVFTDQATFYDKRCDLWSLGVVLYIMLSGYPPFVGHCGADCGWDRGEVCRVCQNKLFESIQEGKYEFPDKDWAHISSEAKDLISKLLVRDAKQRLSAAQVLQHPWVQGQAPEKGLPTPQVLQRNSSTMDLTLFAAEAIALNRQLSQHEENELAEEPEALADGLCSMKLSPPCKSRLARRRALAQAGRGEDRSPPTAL
In short: as §1

CK1D = CK1D (Homo sapiens, UniProt P48730); conditions: read-out: residual enzyme activity
In short: as §1

ULK3 = ULK3 (Homo sapiens, UniProt Q6PHR2); conditions: ULK3, 1 µM; read-out: residual enzyme activity
In short: as §1

AKT3 = AKT3 (Homo sapiens, UniProt Q9Y243); conditions: AKT3, 1 µM; read-out: residual enzyme activity
In short: as §1

VRK2 = VRK2 (Homo sapiens, UniProt Q86Y07); conditions: VRK2, 1 µM; read-out: residual enzyme activity
Chain of VRK2 (Q86Y07 whole entry, species assumed): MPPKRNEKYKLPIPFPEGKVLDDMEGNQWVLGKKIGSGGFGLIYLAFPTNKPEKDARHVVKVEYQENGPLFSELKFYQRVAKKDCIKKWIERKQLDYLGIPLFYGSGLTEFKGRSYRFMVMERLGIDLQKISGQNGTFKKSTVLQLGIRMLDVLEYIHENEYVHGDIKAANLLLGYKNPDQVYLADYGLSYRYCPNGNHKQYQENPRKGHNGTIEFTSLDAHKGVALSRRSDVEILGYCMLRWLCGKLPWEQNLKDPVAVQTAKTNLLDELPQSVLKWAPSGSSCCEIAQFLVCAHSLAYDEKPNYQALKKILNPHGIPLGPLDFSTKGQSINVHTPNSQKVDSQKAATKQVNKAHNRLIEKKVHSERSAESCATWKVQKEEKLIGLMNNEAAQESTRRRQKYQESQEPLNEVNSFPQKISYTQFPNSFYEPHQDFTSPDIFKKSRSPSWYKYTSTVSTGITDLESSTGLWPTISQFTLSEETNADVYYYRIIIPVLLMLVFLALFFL
In short: as §1

JAK2 = JAK2 (Homo sapiens, UniProt O60674); conditions: JAK2, 1 µM; read-out: residual enzyme activity
In short: as §1

HIPK3 = HIPK3 (Homo sapiens, UniProt Q9H422); conditions: HIPK3, 1 µM; read-out: residual enzyme activity
In short: as §1

AKT2 = AKT2 (Homo sapiens, UniProt P31751); conditions: AKT2, 1 µM; read-out: residual enzyme activity
In short: as §1

HIPK4 = HIPK4 (Homo sapiens, UniProt Q8NE63); conditions: HIPK4, 1 µM; read-out: residual enzyme activity
In short: as §1

ALK5/TGFBR1 = ALK5/TGFBR1 (Homo sapiens, UniProt P36897); conditions: ALK5/TGFBR1, 1 µM; read-out: residual enzyme activity
In short: as §1

PKN3/PRK3 = PKN3/PRK3 (Homo sapiens, UniProt Q6P5Z2); conditions: PKN3/PRK3, 1 µM; read-out: residual enzyme activity
In short: as §1

CK1A1L = CK1A1L (Homo sapiens, UniProt Q8N752); conditions: read-out: residual enzyme activity
Chain of CK1A1L (Q8N752 whole entry): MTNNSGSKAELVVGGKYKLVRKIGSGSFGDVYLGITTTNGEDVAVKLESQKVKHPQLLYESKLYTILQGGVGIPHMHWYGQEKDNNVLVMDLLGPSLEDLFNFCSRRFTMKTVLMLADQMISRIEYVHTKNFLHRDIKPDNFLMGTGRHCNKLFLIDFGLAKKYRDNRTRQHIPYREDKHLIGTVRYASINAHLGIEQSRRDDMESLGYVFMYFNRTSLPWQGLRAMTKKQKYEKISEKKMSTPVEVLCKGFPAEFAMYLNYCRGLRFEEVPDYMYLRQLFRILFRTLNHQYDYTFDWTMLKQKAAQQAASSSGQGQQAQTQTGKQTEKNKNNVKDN
In short: as §1

HASPIN = HASPIN (Homo sapiens, UniProt Q8TF76); conditions: read-out: residual enzyme activity
In short: as §1

SIK1 = SIK1 (Homo sapiens, UniProt P57059); conditions: SIK1, 1 µM; read-out: residual enzyme activity
In short: as §1

PKCB2 = PKCB2 (Homo sapiens, UniProt P05771); conditions: PKCb2, 1 µM; read-out: residual enzyme activity
Chain of PKCB2 (P05771 1-673 isoform P05771-2): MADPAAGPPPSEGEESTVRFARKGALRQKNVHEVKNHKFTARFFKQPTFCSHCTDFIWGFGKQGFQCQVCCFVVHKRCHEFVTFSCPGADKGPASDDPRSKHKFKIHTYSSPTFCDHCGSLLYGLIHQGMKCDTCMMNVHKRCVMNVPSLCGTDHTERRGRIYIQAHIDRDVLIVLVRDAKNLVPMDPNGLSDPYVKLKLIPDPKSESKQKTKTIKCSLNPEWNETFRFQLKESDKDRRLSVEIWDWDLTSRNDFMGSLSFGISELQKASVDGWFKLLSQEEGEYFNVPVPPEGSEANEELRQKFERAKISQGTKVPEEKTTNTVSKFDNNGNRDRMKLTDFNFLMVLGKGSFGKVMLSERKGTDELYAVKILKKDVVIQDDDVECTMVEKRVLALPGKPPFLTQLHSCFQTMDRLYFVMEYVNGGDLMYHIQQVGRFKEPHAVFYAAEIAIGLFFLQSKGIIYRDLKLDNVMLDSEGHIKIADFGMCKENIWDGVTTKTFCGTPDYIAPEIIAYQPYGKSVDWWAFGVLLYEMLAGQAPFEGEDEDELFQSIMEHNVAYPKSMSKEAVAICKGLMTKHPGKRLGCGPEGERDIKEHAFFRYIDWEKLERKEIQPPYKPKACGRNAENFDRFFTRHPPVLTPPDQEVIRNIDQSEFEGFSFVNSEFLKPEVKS
In short: as §1

PKCA = PKCA (Homo sapiens, UniProt P17252); conditions: read-out: residual enzyme activity
In short: as §1

ALK = ALK (Homo sapiens, UniProt Q9UM73); conditions: read-out: residual enzyme activity
In short: as §1

KHS/MAP4K5 = KHS/MAP4K5 (Homo sapiens, UniProt Q9Y4K4); conditions: KHS/MAP4K5, 1 µM; read-out: residual enzyme activity
Chain of KHS/MAP4K5 (Q9Y4K4 whole entry): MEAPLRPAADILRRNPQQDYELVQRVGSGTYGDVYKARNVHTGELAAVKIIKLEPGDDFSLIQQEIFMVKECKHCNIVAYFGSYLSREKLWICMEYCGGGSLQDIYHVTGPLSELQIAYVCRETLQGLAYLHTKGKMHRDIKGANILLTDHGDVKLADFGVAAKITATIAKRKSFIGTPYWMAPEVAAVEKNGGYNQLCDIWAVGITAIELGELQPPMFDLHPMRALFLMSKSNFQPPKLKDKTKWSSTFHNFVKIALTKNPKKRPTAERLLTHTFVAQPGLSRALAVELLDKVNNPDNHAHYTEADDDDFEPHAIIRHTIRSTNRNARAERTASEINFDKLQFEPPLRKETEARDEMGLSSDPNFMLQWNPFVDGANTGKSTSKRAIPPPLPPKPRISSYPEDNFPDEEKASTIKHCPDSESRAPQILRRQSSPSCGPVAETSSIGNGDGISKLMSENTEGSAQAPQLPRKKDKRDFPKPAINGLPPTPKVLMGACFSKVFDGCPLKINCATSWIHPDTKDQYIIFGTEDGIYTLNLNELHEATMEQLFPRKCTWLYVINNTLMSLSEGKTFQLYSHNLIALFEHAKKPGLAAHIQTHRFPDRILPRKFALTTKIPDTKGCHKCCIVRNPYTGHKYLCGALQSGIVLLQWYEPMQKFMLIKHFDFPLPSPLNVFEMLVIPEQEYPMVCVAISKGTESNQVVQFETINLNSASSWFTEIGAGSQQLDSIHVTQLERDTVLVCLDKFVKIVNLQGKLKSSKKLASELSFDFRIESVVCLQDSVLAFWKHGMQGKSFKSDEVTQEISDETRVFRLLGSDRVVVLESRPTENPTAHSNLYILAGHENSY
In short: as §1

ROCK2 = ROCK2 (Homo sapiens, UniProt O75116); conditions: ROCK2, 1 µM; read-out: residual enzyme activity
Chain of ROCK2 (O75116 whole entry, species assumed): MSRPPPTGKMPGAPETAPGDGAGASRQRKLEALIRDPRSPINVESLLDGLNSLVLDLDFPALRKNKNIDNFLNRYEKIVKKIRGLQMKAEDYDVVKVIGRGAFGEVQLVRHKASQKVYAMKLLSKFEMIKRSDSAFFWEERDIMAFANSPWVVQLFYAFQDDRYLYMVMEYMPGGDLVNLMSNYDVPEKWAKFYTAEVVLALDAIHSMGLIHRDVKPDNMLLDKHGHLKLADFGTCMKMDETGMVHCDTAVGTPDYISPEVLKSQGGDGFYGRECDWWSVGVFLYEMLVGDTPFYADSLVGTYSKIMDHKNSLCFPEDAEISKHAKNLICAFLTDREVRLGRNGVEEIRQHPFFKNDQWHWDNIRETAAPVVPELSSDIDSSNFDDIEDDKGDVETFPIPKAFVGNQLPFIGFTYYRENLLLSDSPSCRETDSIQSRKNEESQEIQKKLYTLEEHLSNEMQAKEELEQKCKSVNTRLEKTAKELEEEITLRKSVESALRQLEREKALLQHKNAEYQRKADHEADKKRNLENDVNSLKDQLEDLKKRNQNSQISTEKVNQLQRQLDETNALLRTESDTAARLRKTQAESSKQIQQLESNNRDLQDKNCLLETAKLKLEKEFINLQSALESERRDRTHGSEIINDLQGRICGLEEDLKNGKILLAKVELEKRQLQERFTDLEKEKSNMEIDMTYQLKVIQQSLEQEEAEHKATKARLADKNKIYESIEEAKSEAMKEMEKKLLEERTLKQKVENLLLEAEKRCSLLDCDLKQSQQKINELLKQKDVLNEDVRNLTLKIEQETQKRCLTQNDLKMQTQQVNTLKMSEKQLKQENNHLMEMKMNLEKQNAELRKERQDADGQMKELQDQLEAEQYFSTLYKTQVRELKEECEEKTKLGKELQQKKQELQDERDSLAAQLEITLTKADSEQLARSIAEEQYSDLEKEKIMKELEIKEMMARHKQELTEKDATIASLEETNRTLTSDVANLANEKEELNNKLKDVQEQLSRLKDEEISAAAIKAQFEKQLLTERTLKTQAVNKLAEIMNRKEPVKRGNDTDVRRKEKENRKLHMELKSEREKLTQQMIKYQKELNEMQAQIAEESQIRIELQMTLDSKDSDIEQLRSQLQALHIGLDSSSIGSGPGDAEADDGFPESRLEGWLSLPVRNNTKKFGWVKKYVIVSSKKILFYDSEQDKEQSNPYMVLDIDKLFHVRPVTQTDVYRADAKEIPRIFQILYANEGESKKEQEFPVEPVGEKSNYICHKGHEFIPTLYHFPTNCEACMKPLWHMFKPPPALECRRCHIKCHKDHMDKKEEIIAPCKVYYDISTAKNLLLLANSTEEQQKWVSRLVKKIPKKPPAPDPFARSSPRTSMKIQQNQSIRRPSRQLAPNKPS
In short: as §1

KSR2 = KSR2 (Homo sapiens, UniProt Q6VAB6); conditions: KSR2, 1 µM; read-out: residual enzyme activity
In short: as §1

MAST3 = MAST3 (Homo sapiens, UniProt O60307); conditions: MAST3, 1 µM; read-out: residual enzyme activity
In short: as §1

Cc1cn(-c2cc(C(=O)Nc3ccc(C)c(N4Cc5cnc(NC6CC6)nc5C5(CC5)C4=O)c3)cc(C(F)(F)F)c2)cn1 [Compound 8, N-(3-(2'-(cyclopropylamino)-7'-oxo-5'H-spiro[cyclopropane-1,8'-pyrido[4,3-d]pyrimidine]-6'(7'H)-yl)-4-methylphenyl)-3-(4-methyl-1H-imidazol-1-yl)-5-(trifluoromethyl)benzamide]
remaining activity at 1 µM (EPHB3): ≤ 40% | remaining activity at 1 µM (RSK3): > 40% | remaining activity at 1 µM (PBK/TOPK): > 40% | remaining activity at 1 µM (MEKK6): > 40% | remaining activity at 1 µM (ERK7/MAPK15): > 40% | remaining activity at 1 µM (WNK2): > 40% | remaining activity at 1 µM (C-MET; C-MET): > 40% | remaining activity at 1 µM (CDK5/P35; CDK5/P35, 1 µM): > 40% | remaining activity at 1 µM (LYN): ≤ 40% | remaining activity at 1 µM (RIPK4): > 40% | remaining activity at 1 µM (GRK3): > 40% | remaining activity at 1 µM (PKG1A; PKG1A): > 40% | remaining activity at 1 µM (MNK1): > 40% | remaining activity at 1 µM (CK1D; CK1D): > 40% | remaining activity at 1 µM (ULK3): > 40% | remaining activity at 1 µM (AKT3): > 40% | remaining activity at 1 µM (VRK2): > 40% | remaining activity at 1 µM (JAK2): ≤ 40% | remaining activity at 1 µM (HIPK3): > 40% | remaining activity at 1 µM (AKT2): > 40% | remaining activity at 1 µM (HIPK4): > 40% | remaining activity at 1 µM (ALK5/TGFBR1): > 40% | remaining activity at 1 µM (PKN3/PRK3): > 40% | remaining activity at 1 µM (CK1A1L; CK1A1L): > 40% | remaining activity at 1 µM (HASPIN): > 40% | remaining activity at 1 µM (SIK1): ≤ 40% | remaining activity at 1 µM (PKCB2): > 40% | remaining activity at 1 µM (PKCA): > 40% | remaining activity at 1 µM (ALK): > 40% | remaining activity at 1 µM (KHS/MAP4K5): ≤ 40% | remaining activity at 1 µM (ROCK2): > 40% | remaining activity at 1 µM (KSR2): > 40% | remaining activity at 1 µM (MAST3): > 40%

Cc1ccc(Nc2ncc3c(n2)C2(CC2)C(=O)N(c2cc(NC(=O)c4cccc(C(F)(F)F)c4)ccc2C)C3)cn1 [Compound 51, N-(4-methyl-3-(2'-((6-methylpyridin-3-yl)amino)-7'-oxo-5'H-spiro[cyclopropane-1,8'-pyrido[4,3-d]pyrimidine]-6'(7'H)-yl)phenyl)-3-(trifluoromethyl)benzamide]
remaining activity at 1 µM (EPHB3): ≤ 40% | remaining activity at 1 µM (RSK3): > 40% | remaining activity at 1 µM (PBK/TOPK): > 40% | remaining activity at 1 µM (MEKK6): > 40% | remaining activity at 1 µM (ERK7/MAPK15): > 40% | remaining activity at 1 µM (WNK2): > 40% | remaining activity at 1 µM (C-MET; c-MET): > 40% | remaining activity at 1 µM (CDK5/P35; CDK5/p35, 1 µM): > 40% | remaining activity at 1 µM (LYN): ≤ 40% | remaining activity at 1 µM (RIPK4): > 40% | remaining activity at 1 µM (GRK3): > 40% | remaining activity at 1 µM (PKG1A; PKGla): > 40% | remaining activity at 1 µM (MNK1): > 40% | remaining activity at 1 µM (CK1D; CKld): > 40% | remaining activity at 1 µM (ULK3): > 40% | remaining activity at 1 µM (AKT3): > 40% | remaining activity at 1 µM (VRK2): > 40% | remaining activity at 1 µM (JAK2): ≤ 40% | remaining activity at 1 µM (HIPK3): > 40% | remaining activity at 1 µM (AKT2): > 40% | remaining activity at 1 µM (HIPK4): ≤ 40% | remaining activity at 1 µM (ALK5/TGFBR1): > 40% | remaining activity at 1 µM (PKN3/PRK3): > 40% | remaining activity at 1 µM (CK1A1L; CKlalL): > 40% | remaining activity at 1 µM (HASPIN): > 40% | remaining activity at 1 µM (SIK1): ≤ 40% | remaining activity at 1 µM (PKCB2): > 40% | remaining activity at 1 µM (PKCA): > 40% | remaining activity at 1 µM (ALK): > 40% | remaining activity at 1 µM (KHS/MAP4K5): ≤ 40% | remaining activity at 1 µM (ROCK2): > 40% | remaining activity at 1 µM (KSR2): > 40% | remaining activity at 1 µM (MAST3): > 40%
